# Assay results as given in US9370507B2, “Pyridonyl guanidine F1F0-ATPase inhibitors and therapeutic uses thereof” (Lycera Corporation, priority 2010, dated 2016).
# pEC50, pIC50: −log10 of the molar value.
# Legend:
# Ramos cells = assay: Cytotoxicity in Ramos cells; format: cell-based; details: Homo sapiens, read-out: Ramos Cell EC50
# Procedure: (§1) The compounds listed in Table 4 were tested for activity against F1F0-ATPase by measuring the ability of the compounds to inhibit ATP synthesis. In addition, the compounds were assessed for cytotoxicity in Ramos cells Inhibition of F1F0-ATPase activity in synthesizing ATP and cytotoxicity in Ramos cells were measured according to the procedures described in K. M. Johnson et al. Chemistry & Biology 2005, 12, 485-496.
# F1F0-ATPase = biological target: T1, F1F0-ATPase (Bos taurus, UniProt P13621); assay: Inhibition of F1F0-ATPase activity in synthesizing ATP; format: biochemical; details: inhibition of ATP synthesis; read-out: ATP Syn IC50
# T1 construct: from tissue
# Procedure: as §1
SMILES,pIC50 (F1F0-ATPase),pEC50 (Ramos cells)
CC(C)(C)N/C(=N\C(=O)c1ccc(F)c(F)c1)Nc1cccc(O)n1 [Compound A-45],> 5.00,> 5.00
C[C@@H](N/C(=N/C(=O)c1ccc(Cl)cc1)Nc1cccc(O)n1)C1CCCCC1 [Compound A-103],> 5.00,> 5.00
CC(C)N/C(=N/C(=O)c1ccc(Cl)cc1)Nc1cccc(O)n1 [Compound A-109],> 5.00,< 5.00
O=C(/N=C(\Nc1cccc(O)n1)NC1CCOCC1)c1ccc(F)c(F)c1 [Compound A-98],< 5.00,< 5.00
CCOC(=O)Nc1cccc(N/C(=N\C(=O)c2ccc(F)c(F)c2)Nc2cccc(C(F)(F)F)c2)n1 [Compound A-111],< 5.00,< 5.00
O=C(/N=C(/NCc1cccc(Cl)c1)Nc1cccc(O)n1)c1ccc(F)c(F)c1 [Compound A-72],> 5.00,> 5.00
CC(C)(C)c1ccccc1N/C(=N/C(=O)c1ccc(F)c(F)c1)Nc1cccc(O)n1 [Compound A-13],> 5.00,> 5.00
O=C(/N=C(/Nc1cc(F)cc(Cl)c1)Nc1cccc(O)n1)c1ccc(Cl)c(F)c1 [Compound A-23],> 5.00,> 5.00
O=C(/N=C(/Nc1cc(F)cc(Cl)c1)Nc1cccc(O)n1)c1cccc(Cl)c1 [Compound A-21],> 5.00,> 5.00
O=C(/N=C(/NCC(F)(F)F)Nc1cccc(NS(=O)(=O)CC(F)(F)F)n1)c1ccc(Cl)cc1 [Compound A-125],> 5.00,> 5.00
O=C(/N=C(/Nc1cccc(O)n1)NC1CC1)c1ccc(Cl)c(F)c1 [Compound A-50],> 5.00,< 5.00
CC(C)N/C(=N/C(=O)c1ccc(F)c(F)c1)Nc1cccc(O)n1 [Compound A-107],> 5.00,< 5.00
CC1(N/C(=N/C(=O)c2ccc(Cl)cc2)Nc2cccc(NS(=O)(=O)CC(F)(F)F)n2)CCC1 [Compound A-126],> 5.00,> 5.00
CC(C)(C)CN/C(=N/C(=O)c1ccc(Cl)cc1)Nc1cccc(NC(=O)C(C)(C)C)n1 [Compound A-139],< 5.00,< 5.00
CC(=O)Nc1cccc(NC(=NC(=O)c2ccc(Cl)cc2)Nc2cc(F)cc(Cl)c2)n1 [Compound A-140],> 5.00,< 5.00
CC(C)(C)CN/C(=N/C(=O)c1ccc(Cl)cc1)Nc1cccc(NS(=O)(=O)CC(F)(F)F)n1 [Compound A-134],> 5.00,> 5.00
O=C(/N=C(\Nc1cccc(O)n1)Nc1ccc(F)cc1C1CC1)c1ccc(F)c(F)c1 [Compound A-11],> 5.00,> 5.00
CC1(N/C(=N\C(=O)c2ccc(Cl)cc2)Nc2cccc(O)n2)CCC1 [Compound A-58],> 5.00,> 5.00
CC1CCCCC1NC(=NC(=O)c1ccc(C(F)(F)F)cc1)Nc1cccc(O)n1 (stereo not shown) [Compound A-43],> 5.00,< 5.00

SMILES,pIC50 (F1F0-ATPase),pEC50 (Ramos cells)
Cn1cnc(S(=O)(=O)Nc2cccc(N/C(=N\C(=O)c3ccc(Cl)cc3)NCC(C)(C)C)n2)c1 [Compound A-145],< 5.00,< 5.00
CC(C)(C)CN/C(=N/C(=O)c1ccc(Cl)cc1)Nc1cccc(NS(=O)(=O)c2ccccc2C#N)n1 [Compound A-141],> 5.00,> 5.00
CC(C)(C)CN/C(=N/C(=O)c1ccc(Cl)cc1)Nc1cccc(NS(=O)(=O)c2ccccc2)n1 [Compound A-133],> 5.00,< 5.00
O=C(/N=C(/NCc1cc(F)c(F)c(F)c1)Nc1cccc(O)n1)c1ccc(F)c(F)c1 [Compound A-75],< 5.00,< 5.00
COc1cccc(N/C(=N\C(=O)c2cccc(C(F)(F)F)c2)Nc2cccc(C(F)(F)F)c2)n1 [Compound A-119],< 5.00,< 5.00
COCC(C)N/C(=N/C(=O)c1ccc(F)c(F)c1)Nc1cccc(O)n1 (stereo not shown) [Compound A-100],< 5.00,< 5.00
CS(=O)(=O)Nc1cccc(N/C(=N\C(=O)c2ccc(F)c(F)c2)Nc2cccc(C(F)(F)F)c2)n1 [Compound A-113],> 5.00,> 5.00
O=C(/N=C(/NCc1ccc(F)c(Cl)c1)Nc1cccc(O)n1)c1ccc(Cl)cc1 [Compound A-82],> 5.00,> 5.00
C[C@@H](N/C(=N/C(=O)c1ccc(C(F)(F)F)cc1)Nc1cccc(O)n1)C1CCCCC1 [Compound A-91],> 5.00,> 5.00
O=C(N/C(=N\c1cccc(O)n1)Nc1cc(F)cc(Cl)c1)c1ccc(Cl)cc1 [Compound A-8],> 5.00,> 5.00
O=C(N/C(=N\c1cccc(O)n1)Nc1cccc(Cl)c1)c1ccc(C(F)(F)F)cc1 [Compound A-7],> 5.00,> 5.00
O=C(/N=C(\Nc1cccc(O)n1)NC1CCCC1)c1ccc(F)c(F)c1 [Compound A-95],> 5.00,> 5.00
O=C(/N=C(/NCc1ccc(Cl)cc1F)Nc1cccc(NS(=O)(=O)c2cccnc2)n1)c1ccc(Cl)cc1 [Compound A-148],> 5.00,> 5.00
Nc1cccc(N/C(=N\C(=O)c2ccc(F)c(F)c2)Nc2cccc(C(F)(F)F)c2)n1 [Compound A-110],> 5.00,< 5.00
Cc1cc(CN/C(=N/C(=O)c2ccc(Cl)c(F)c2)Nc2cccc(O)n2)no1 [Compound A-55],> 5.00,< 5.00
CC(C)(C)CN/C(=N/C(=O)c1ccc(Cl)cc1)Nc1cccc(NS(=O)(=O)c2cccnc2)n1 [Compound A-144],> 5.00,< 5.00
O=C(/N=C(/NCc1cc(F)c(F)c(F)c1)Nc1cccc(O)n1)c1ccc(Cl)cc1 [Compound A-60],> 5.00,< 5.00
O=C(/N=C(/Nc1cccc(Cl)c1)Nc1cccc(O)n1)c1ccc(Cl)cc1 [Compound A-25],> 5.00,< 5.00

# More lines, main results first:
pIC50 (F1F0-ATPase),SMILES,pEC50 (Ramos cells)
> 5.00,O=C(/N=C(/NCc1ccc(F)cc1)Nc1cccc(O)n1)c1ccc(C(F)(F)F)cc1 [Compound A-85],> 5.00
> 5.00,CC(NC(=NC(=O)c1ccc(C(F)(F)F)cc1)Nc1cccc(O)n1)c1cccc(Cl)c1 (stereo not shown) [Compound A-68],> 5.00
> 5.00,CC(=O)N(Cc1ccc(F)c(Cl)c1)/C(=N/C(=O)c1ccc(C(F)(F)F)cc1)Nc1cccc(O)n1 [Compound A-65],> 5.00
> 5.00,O=C(/N=C(\Nc1cccc(O)n1)NC1CC1)c1ccc(C(F)(F)F)cc1 [Compound A-48],< 5.00
> 5.00,O=C(/N=C(/NCc1cccc(F)c1F)Nc1cccc(O)n1)c1ccc(C(F)(F)F)cc1 [Compound A-86],> 5.00
> 5.00,CC(NC(=NC(=O)c1ccc(C(F)(F)F)cc1)Nc1cccc(O)n1)c1ccc(Cl)cc1 (stereo not shown) [Compound A-69],> 5.00
> 5.00,CC(NC(=NC(=O)c1ccc(C(F)(F)F)cc1)Nc1cccc(O)n1)c1ccccc1Cl (stereo not shown) [Compound A-67],> 5.00
> 5.00,O=C(/N=C(/Nc1cc(F)cc(Cl)c1)Nc1cccc(O)n1)c1ccc(C(F)(F)F)cc1 [Compound A-2],> 5.00
> 5.00,O=C(/N=C(/NCc1c(F)cc(F)cc1F)Nc1cccc(O)n1)c1ccc(C(F)(F)F)cc1 [Compound A-38],> 5.00
> 5.00,O=C(/N=C(/NCc1cc(F)c(F)c(F)c1)Nc1cccc(O)n1)c1ccc(C(F)(F)F)cc1 [Compound A-37],> 5.00
> 5.00,CC1(N/C(=N\C(=O)c2ccc(C(F)(F)F)cc2)Nc2cccc(O)n2)CC1 [Compound A-46],> 5.00
> 5.00,COCC(C)N/C(=N/C(=O)c1ccc(C(F)(F)F)cc1)Nc1cccc(O)n1 (stereo not shown) [Compound A-94],< 5.00
> 5.00,O=C(/N=C(/NCc1ccccc1C(F)(F)F)Nc1cccc(NS(=O)(=O)C2CC2)n1)c1ccc(C(F)(F)F)cc1 [Compound A-117],> 5.00
> 5.00,O=C(/N=C(/Nc1cccc(C(F)(F)F)c1)Nc1cccc(O)n1)c1ccc(Cl)cc1 [Compound A-15],> 5.00
> 5.00,Cc1cc(CN/C(=N/C(=O)c2ccc(C(F)(F)F)cc2)Nc2cccc(O)n2)no1 [Compound A-53],> 5.00
> 5.00,O=C(/N=C(/NCc1ccccc1C(F)(F)F)Nc1cccc(O)n1)c1ccc(C(F)(F)F)cc1 [Compound A-32],> 5.00
> 5.00,O=C(/N=C(/Nc1ccc(F)c(Cl)c1)Nc1cccc(O)n1)c1ccc(C(F)(F)F)cc1 [Compound A-5],> 5.00
> 5.00,O=C(/N=C(/NCc1ccccc1C(F)(F)F)Nc1cccc(NS(=O)(=O)CC(F)(F)F)n1)c1ccc(F)c(F)c1 [Compound A-149],> 5.00
> 5.00,CC(C)(C)N/C(=N/C(=O)c1ccc(C(F)(F)F)cc1)Nc1cccc(O)n1 [Compound A-41],> 5.00
> 5.00,O=C(/N=C(/NCc1ccc(F)cc1Cl)Nc1cccc(O)n1)c1ccc(Cl)cc1 [Compound A-81],> 5.00
> 5.00,CCC(C)(C)N/C(=N/C(=O)c1ccc(C(F)(F)F)cc1)Nc1cccc(O)n1 [Compound A-90],> 5.00
> 5.00,O=C(/N=C(/NCc1ccccc1C(F)(F)F)Nc1cccc(NS(=O)(=O)CC(F)(F)F)n1)c1ccc(C(F)(F)F)cc1 [Compound A-116],> 5.00
> 5.00,O=C(/N=C(/NCc1ccccc1C(F)(F)F)Nc1cccc(O)n1)c1ccc(Cl)cc1 [Compound A-77],> 5.00
> 5.00,CCS(=O)(=O)Nc1cccc(N/C(=N\C(=O)c2ccc(C(F)(F)F)cc2)NCc2ccccc2C(F)(F)F)n1 [Compound A-115],> 5.00
> 5.00,O=C(/N=C(/NCc1ccccc1C(F)(F)F)Nc1cccc(O)n1)c1ccc(F)c(F)c1 [Compound A-73],> 5.00
